Data: patent publication US9145398B2, “Methods of treating CXCR4-expressing cancers” (University of Louisville Research Foundation, Inc., priority 2010, dated 2015)

How the values were obtained:
A549 cells = test: MTT cell proliferation assay, A549; type: cell-based, human; conditions: 4 days; for IC50: Homo sapiens, A549, 96 h
Experimental: (§1) To determine the potential for compounds to impact the proliferation of cells, cell growth was assessed capacity using the 3-(4,5-dimethylthiazol-2-yl)-2,5-diphenyltetrazolium bromide (MTT) assay. The effect of these compounds was determined for four cell lines: HS27, a “normal” fibroblast cell line; MCF7, an estrogen-dependant non-metastatic breast cancer cell line; MDA-MB-231, an estrogen-independent metastatic breast cancer cell line; and A549, a lung cancer cell line. Cells were left untreated, treated with 12.5 mM DMSO, or treated with varying concentrations of four compounds, (I-9, I-25, I-36, and I-37), then incubated for 4 days, before analysis. Absorbance at 490 nm represents proliferating cells. For samples using compounds, these values are normalized to untreated samples.

HS27 cells = test: MTT cell proliferation assay, HS27; type: cell-based, human; conditions: 4 days, normal fibroblast cell line
Experimental: as §1

hCXCR4-GFP [1] = molecular target: T1, hCXCR4-GFP (Homo sapiens, UniProt P61073); test: Intracellular calcium mobilization assay, hCXCR4-GFP expressing 300.19 cells, CXCL12; type: cell-based; design: IC50 of intracellular calcium mobilization, CXCR4; other: CXCL12-mediated; other: 50 μM test compound; normalized Δ fluorescence (CXCR4, intracellular calcium mobilization); other: 50 μM test compound, 60 seconds pretreatm; conditions: CXCL12-mediated; read-out: IC50 of intracellular calcium mobilization, CXCR4
T1 sequence (P61073 whole entry): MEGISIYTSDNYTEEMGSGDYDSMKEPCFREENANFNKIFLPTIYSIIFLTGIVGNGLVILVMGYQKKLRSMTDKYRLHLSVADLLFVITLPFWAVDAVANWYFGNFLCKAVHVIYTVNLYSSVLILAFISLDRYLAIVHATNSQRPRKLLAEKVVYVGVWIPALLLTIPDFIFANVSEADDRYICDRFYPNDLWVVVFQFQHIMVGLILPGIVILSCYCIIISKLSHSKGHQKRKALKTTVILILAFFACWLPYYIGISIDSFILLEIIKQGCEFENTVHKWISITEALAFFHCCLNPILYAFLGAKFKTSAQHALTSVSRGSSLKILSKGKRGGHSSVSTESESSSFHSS
Experimental: (§2) Intracellular Calcium Mobilization Assay Method: The intracellular calcium mobilization assay used 300.19 cells which stably expressed hCXCR4-GFP, as described previously in Pello et al. (2008). Cells were loaded with INDO-I and then pretreated with the 50 μM of the test compound for 60 seconds prior to stimulation of intracellular calcium mobilization with an optimized concentration of CXCL12. […] The value Δ florescence is the difference between (a) the fluorescence ratio from cells before exposure to CXCL12 at its optimized concentration and (b) the fluorescence ratio from cells following stimulation with the optimized concentration of CXCL12. Decreases in Δ florescence correspond to decreases in intracellular calcium mobilization, and therefore, decreased signaling. As CXCL12 concentration was optimized for each test compound, results are presented as normalized Δ florescence which is Δ fluorescence divided by the fluorescence ratio of optimized CXCL12-only stimulation. In some instances, the IC50 concentration (concentration at which intracellular calcium mobilization is reduced to 50% of the Δ fluorescence of the CXCL12 plus DMSO control) of the test compounds was determined. All assays were performed a minimum of four times; error bars represent the standard deviation of the mean.

hCXCR4-GFP [2] = test: as above; type: cell-based, human; conditions: 50 μM test compound
Experimental: as §2

MDA-MB-231 cells = test: MTT cell proliferation assay, MDA-MB-231; type: cell-based, human; conditions: 4 days; for IC50: Homo sapiens, MDA-MB-231, 96 h
Experimental: as §1

MCF7 cells = test: MTT cell proliferation assay, MCF7; type: cell-based, human; conditions: 4 days; for IC50: Homo sapiens, MCF7, 96 h
Experimental: as §1

300.19 cells = test: Cytotoxicity assay, propidium iodide based flow cytometry; type: cell-based; conditions: for cytotoxicity, percentage of cells staining positive for PI: 50 μM test compound; for cytotoxicity in dose response below 50 μM: 10 μM, 5 μM and 1 μM tested
Experimental: Cytotoxicity Assay Method: To determine the potential for test compound cytotoxicity to influence cell intracellular calcium mobilization and chemotaxis, cell cytotoxicity was assessed using propidium iodide (PI) based flow cytometry. Propidium iodine is impermeable to intact cell membranes and thus its lack of intercalation into DNA (which increases PI fluorescence) is a positive indicator of cell viability. Cytotoxicity values are presented as percentage of cells staining positive for PI. Lower values of fluorescence indicate less cytotoxicity. All assays were performed a minimum of four times; error bars represent the standard deviation of the mean.

BLT1 [3] = molecular target: T2, BLT1 (Homo sapiens, UniProt Q15722); test: Intracellular calcium mobilization assay, cells expressing BLT1, LTB4; type: cell-based; conditions: LTB4-mediated
T2 sequence (Q15722 whole entry, species assumed): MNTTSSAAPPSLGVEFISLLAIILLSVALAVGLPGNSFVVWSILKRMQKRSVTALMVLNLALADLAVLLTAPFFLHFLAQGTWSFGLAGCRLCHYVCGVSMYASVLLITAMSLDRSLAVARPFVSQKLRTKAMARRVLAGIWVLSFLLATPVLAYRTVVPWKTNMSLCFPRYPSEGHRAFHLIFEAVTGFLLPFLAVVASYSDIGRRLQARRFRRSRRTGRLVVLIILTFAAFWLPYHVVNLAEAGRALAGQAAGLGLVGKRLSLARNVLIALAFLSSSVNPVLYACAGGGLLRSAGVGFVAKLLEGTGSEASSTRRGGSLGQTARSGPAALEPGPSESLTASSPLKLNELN
Experimental: as §2
At 50 μM test compound concentrations in BLT1-expressing cells, I-44 (0.040) and I-46 (0.017) inhibited intracellular calcium mobilization.

BLT1 [4] = molecular target: T2, BLT1; test: Chemotaxis assay, cells expressing BLT1, LTB4; type: cell-based; conditions: 50 μM test compound, LTB4-induced
Experimental: (§3) Cells were suspended in chemotaxis buffer (RPMI 1640, 1% fetal bovine serum, 1 mM HEPES) at a concentration of 1×10^7 cells per ml. Cell chemotaxis was determined by examining the migration of the 300.19 cells in response to administration of 50 μM test compound plus an optimized concentration of CXCL12 using a chemotaxis assay that was previously described in Basu et al. (Basu et al., Critical role for polar residues in coupling leukotriene B4 binding to signal transduction in BLT1, J. Biol. Chem. (2007) Vol. 282, pp. 10005-17). 100 μL of 300.19 cells from the above cell suspension were placed in the upper chamber of a Transwell support (Corning Costar, Cambridge, Mass.) and were separated by a 5 micron filter from a bottom chamber containing 50 μM test compound plus the optimized concentration of CXCL12 in a final bottom chamber volume of 600 μl. After 3 h of incubation at 37° C. in 5% CO2, the upper chamber was removed and cells in the lower chamber were counted in a Bürker chamber. Cell counts for all samples were normalized to a CXCL12 plus DMSO control and results are reported using this normalized measure, referred to herein as the chemotaxis index. In some instances, the IC50 concentration (i.e., the concentration at which the chemotaxis index is reduced to 50% of the chemotaxis index of the CXCL12 plus DMSO control) of the test compounds was determined. All assays were performed a minimum of four times; error bars represent the standard deviation of the mean.
To examine specificity of some of the compounds for CXCR4, their activity was tested against a non-family member class A G protein-coupled receptor, BLT1. […] I-38 and I-43 inhibited BLT1-mediated chemotaxis (0.23) and (0.045) to about the same extent as CXCR4-mediated chemotaxis (0.21) and (0.064), respectively.

hCXCR4-GFP [5] = molecular target: T1, hCXCR4-GFP; test: Chemotaxis assay, hCXCR4-GFP expressing 300.19 cells, CXCL12; type: cell-based; conditions: for chemotaxis index (CXCR4-mediated): 50 μM test compound plus optimized CXCL12, normalized to CXCL12 plus DMSO control
Experimental: as §3

hCXCR4-GFP [6] = test: as above; type: cell-based, human; conditions: from chemotaxis indices at 50 μM
Experimental: as §3

[7] = Test for toxicity in mice; type: in vivo; conditions: i.p. 5 mg/kg, then 20 or 40 mg/kg two days later; observed over 3 weeks
Experimental: Test for Toxicity: Mice were treated by intra-peritoneal injections of three of compounds I-28, I-36, and I-38 at the first dose of 5 mg/kg of body weight, followed by a second injection of either 20 mg/kg of body weight or 40 mg/kg of body weight two days later.

TC-1 tumor cells = type: in vivo; conditions: 5 mg/kg i.p. every day for 21 days; versus PBS or Vehicle controls
Description: Development of Animal Model for CXCR4 Dependent Cancer Metastasis in Lungs: To establish a CXCR4 dependent lung tumor metastasis model, we first screened several cancer cell lines that are known to metastasize to lungs in mice models to determine which cancer cell lines endogenously express CXCR4 receptor. The mice cell lines screened were Lewis lung carcinoma, B16F10 melanoma, and TC-1 cervical carcinoma. Mice cell lines were screened using flow cytometry-based surface receptor staining using a fluorochrome labeled antibody to mouse CXCR4 receptor. […] The TC-1 cell line was generated by transfection of murine lung squamous epithelial cells by Human pappillomavirus (HPV) oncogenes E6, E7, and activated Ras.
5 mg/kg body weight of AMD3100, I-28, I-36, or I-38 were also injected at the same dose intra-peritoneal (i.p.) every day for 21 days starting from the day before the tumor cell injection. Mice were sacrificed and lungs were perfused and collected on day 21 post tumor challenge. Lungs were stored in formalin for 16 hrs and then transferred into 70% ethanol until the lung lobes became lucid. All five lung lobes were separated. Tumors were counted using a magnifying glass or a microscope. Tumor sizes were measured using a digital caliper. The total number of tumors counted in all five lung lobes of an individual mouse is reported as the tumor incidence. Mean tumor sizes were added together to calculate cumulative tumor size, which is reported as the tumor burden for each mouse.

IC50 (A549 cells) [µM] | IC50 (hCXCR4-GFP [1]) [µM] | IC50 (MDA-MB-231 cells) [µM] | IC50 (BLT1 [3]) [µM] | Compound | proliferation inhibition, HS27 (in words) (HS27 cells) | difference between CXCR4- and BLT1-mediated intracellular calcium mobilization (hCXCR4-GFP [2]) | IC50 (MCF7 cells) [µM] | cytotoxicity, percentage of cells staining positive for PI (300.19 cells) [%] | cytotoxicity in dose response below 50 μM (300.19 cells) | chemotaxis index (BLT1-mediated) (BLT1 [4]) | proliferation inhibition, MCF7 (in words) (MCF7 cells) | chemotaxis index (CXCR4-mediated) (hCXCR4-GFP [5]) | fold greater inhibition of CXCR4-mediated than BLT1-mediated chemotaxis (hCXCR4-GFP [6]) [fold] | apparent toxicity (loss of body weight, signs of physiological distress) [7] | TC-1 metastatic tumor incidence and burden in lungs (TC-1 tumor cells) | IC50 (hCXCR4-GFP [5]; hCXCR4-GFP 300.19 cells, CXCL12) [µM] | proliferation inhibition, A549 (in words) (A549 cells) | proliferation inhibition, MDA-MB-231 (in words) (MDA-MB-231 cells)
7.5 | 1 | 5 | 20 | COc1cc(NCCCC(C)Nc2ccnc3cc4ccccc4cc23)c2ncccc2c1 (centres unmarked) [Compound I-9, N-(5-(6-methoxyquinolin-8-ylamino)pentan-2-yl)benzo[g]quinolin-4-amine] | consistently inhibited cell proliferation even at concentrations nearing 1 μM | no significant difference | 5 | 81.2 | no cytotoxicity beyond the initial 50 μM screening concentration |  |  |  |  |  |  |  |  | 
10 | 1 | 10 | 40 | CN(C)c1cccc(Nc2nc3ccccc3nc2NS(=O)(=O)c2ccc([N+](=O)[O-])cc2)c1 [Compound I-25, N-[3-(3-dimethylaminophenyl)aminoquinoxalin-2-yl]-4-nitro-benzenesulfonamide] | marginal proliferation inhibition at higher concentrations |  |  | 23.4 | no cytotoxicity beyond the initial 50 μM screening concentration | 0.38 | only marginally inhibited cell proliferation of MCF7 cells at high concentrations | 0.030 | 12 |  |  |  |  | 
 |  |  |  | Cc1ccc(NCC(=O)Nc2ncc(Cc3cccc(C(F)(F)F)c3)s2)cc1C [Compound I-37, 2-(3,4-dimethylphenyl)amino-N-[5-[[3-(trifluoromethyl)phenyl]methyl]thiazol-2-yl]-acetamide] | did not inhibit proliferation for any tested cell line |  |  |  |  |  | did not inhibit proliferation for any tested cell line |  |  |  |  |  | did not inhibit proliferation for any tested cell line | did not inhibit proliferation for any tested cell line

Compound | IC50 (A549 cells) [µM] | IC50 (hCXCR4-GFP [1]) [µM] | IC50 (MDA-MB-231 cells) [µM] | IC50 (BLT1 [3]) [µM] | proliferation inhibition, HS27 (in words) (HS27 cells) | difference between CXCR4- and BLT1-mediated intracellular calcium mobilization (hCXCR4-GFP [2]) | IC50 (MCF7 cells) [µM] | cytotoxicity, percentage of cells staining positive for PI (300.19 cells) [%] | cytotoxicity in dose response below 50 μM (300.19 cells) | chemotaxis index (BLT1-mediated) (BLT1 [4]) | proliferation inhibition, MCF7 (in words) (MCF7 cells) | chemotaxis index (CXCR4-mediated) (hCXCR4-GFP [5]) | fold greater inhibition of CXCR4-mediated than BLT1-mediated chemotaxis (hCXCR4-GFP [6]) [fold] | apparent toxicity (loss of body weight, signs of physiological distress) [7] | TC-1 metastatic tumor incidence and burden in lungs (TC-1 tumor cells) | IC50 (hCXCR4-GFP [5]; hCXCR4-GFP 300.19 cells, CXCL12) [µM] | proliferation inhibition, A549 (in words) (A549 cells) | proliferation inhibition, MDA-MB-231 (in words) (MDA-MB-231 cells)
Cc1ccc(N2C(=O)/C(=C/Nc3ccc(S(=O)(=O)Nc4ccc(O)cc4)cc3)c3ccccc3C2=O)cc1C [Compound I-28, 4-[[2-(3,4-dimethylphenyl)-1,3-dioxo-4-isoquinolylidene]methylamino]-N-(4-hydroxyphenyl)-benzenesulfonamide] |  | 10 |  | 22.5 |  | no significant difference |  |  |  |  |  |  |  | did not induce any apparent toxicity | reduced mice TC-1 metastatic tumor incidence and burden in lungs |  |  | 
CCn1c2ccccc2c2ccc(Nc3nc4ccccc4nc3NS(=O)(=O)c3ccc(C)cc3)cc21 [Compound I-36, N-[3-(9-ethylcarbazol-2-yl)aminoquinoxalin-2-yl]-4-methyl-benzenesulfonamide] | 22.5 |  | 30 |  | marginal proliferation inhibition at higher concentrations |  | 12.5 | 21.0 | no cytotoxicity beyond the initial 50 μM screening concentration | 0.44 |  | 0.12 | 3.5 | did not induce any apparent toxicity | reduced mice TC-1 metastatic tumor incidence and burden in lungs | 1 |  | 
